Measurements from publication doi:10.1101/2025.10.31.685654v2 (biorxiv, 2026).

Legend:
Assay in all cases: two-electrode voltage clamp, Xenopus oocytes
[1] = tested on: T1, Dm-DopC1; type: cell-based, Daphnia magna; details: antagonist against 50 µM dopamine; ND96 pH 7.5, -60 mV; 4-parameter fit, bottom = 0
T1 construct: full-length homomeric pentamer expressed from cRNA in Xenopus laevis oocytes; predicted signal peptide residues 1-26

[2] = molecular target: T2, Dm-DopC1 (Daphnia magna, UniProt Z9WC39ES65, D188N); type: cell-based
T2 construct: full-length homomeric pentamer expressed from cRNA in Xenopus laevis oocytes; predicted signal peptide residues 1-26
T2 sequence (Z9WC39ES65 27-520 D188N limits assumed): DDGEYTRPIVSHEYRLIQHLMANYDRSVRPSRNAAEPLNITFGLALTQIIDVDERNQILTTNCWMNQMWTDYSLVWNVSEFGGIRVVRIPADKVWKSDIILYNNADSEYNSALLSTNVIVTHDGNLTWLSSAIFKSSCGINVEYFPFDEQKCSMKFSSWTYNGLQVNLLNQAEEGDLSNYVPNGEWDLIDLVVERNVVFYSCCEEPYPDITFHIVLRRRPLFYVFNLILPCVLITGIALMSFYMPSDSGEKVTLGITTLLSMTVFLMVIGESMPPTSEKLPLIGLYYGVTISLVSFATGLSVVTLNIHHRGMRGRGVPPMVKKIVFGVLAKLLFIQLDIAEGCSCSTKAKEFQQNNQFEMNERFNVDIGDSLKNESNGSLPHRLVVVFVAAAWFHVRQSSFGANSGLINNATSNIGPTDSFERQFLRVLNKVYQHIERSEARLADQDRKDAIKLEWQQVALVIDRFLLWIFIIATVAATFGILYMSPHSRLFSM

[3] = molecular target: T3, Dm-DopC1 (Daphnia magna, UniProt Z9WC39ES65, N92T); type: cell-based
T3 construct: full-length homomeric pentamer expressed from cRNA in Xenopus laevis oocytes; predicted signal peptide residues 1-26
T3 sequence (Z9WC39ES65 27-520 N92T limits assumed): as the sequence (Z9WC39ES65 27-520 D188N limits assumed) above, with N66T, N162D counted along it
Description: two-electrode voltage clamp, Xenopus oocytes on Dm-DopC1

Compound	IC50 [1] [µM]	other results
CN1CCc2cccc3c2[C@H]1Cc1ccc(O)c(O)c1-3 [apomorphine]	6	
CN1CCC[C@H]1c1cccnc1 [nicotine]	109	
NCCc1ccc(O)c(O)c1 [dopamine]		EC50 [2]: > 9000 µM
NC[C@H](O)c1ccc(O)c(O)c1 [norepinephrine]		EC50 [3]: 440 ± 114 µM
COc1cc2c3cc1Oc1cc(ccc1O)C[C@@H]1c4c(cc(OC)c(O)c4Oc4ccc(cc4)C[C@@H]3N(C)CC2)CC[N+]1(C)C [tubocurarine]	0.9	
